Laboratory results taken from BigSolDB 2.1.

C[C@H]1[C@H](OC(=O)CCC(=O)O)O[C@@H]2O[C@@]3(C)CC[C@H]4[C@H](C)CC[C@@H]1[C@@]24OO3
Conditions | solubility (mole fraction)
in ethanol, 283.06 K | 0.0113
in ethanol, 288.14 K | 0.0136
in ethanol, 293.19 K | 0.0168
in ethanol, 298.24 K | 0.0208
in ethanol, 303.21 K | 0.0263
in ethanol, 308.16 K | 0.0334
in ethanol, 313.14 K | 0.0423
in ethanol, 318.22 K | 0.0536
in ethanol, 323.2 K | 0.0657
in ethyl acetate, 283.17 K | 0.0199
in ethyl acetate, 288.17 K | 0.0221
in ethyl acetate, 293.16 K | 0.0246
in ethyl acetate, 298.14 K | 0.0278
in ethyl acetate, 303.17 K | 0.0309
in ethyl acetate, 308.14 K | 0.0344
in ethyl acetate, 313.17 K | 0.0382
in ethyl acetate, 318.16 K | 0.0423
in ethyl acetate, 323.19 K | 0.0473
in isobutanol, 283.14 K | 0.00543
in isobutanol, 288.07 K | 0.00698
in isobutanol, 293.14 K | 0.00912
in isobutanol, 298.1 K | 0.0118
in isobutanol, 303.05 K | 0.0155
in isobutanol, 308.08 K | 0.0196
in isobutanol, 313.07 K | 0.0252
in isobutanol, 318.05 K | 0.0325
in isobutanol, 323.15 K | 0.0408
in isopentanol, 283.16 K | 0.00573
in isopentanol, 288.17 K | 0.00721
in isopentanol, 293.14 K | 0.00915
in isopentanol, 298.16 K | 0.0119
in isopentanol, 303.16 K | 0.0151
in isopentanol, 308.14 K | 0.0194
in isopentanol, 313.17 K | 0.0244
in isopentanol, 318.16 K | 0.031
in isopentanol, 323.16 K | 0.0397
in isopropanol, 283.06 K | 0.00541
in isopropanol, 288.14 K | 0.00717
in isopropanol, 293.19 K | 0.00965
in isopropanol, 298.24 K | 0.012
in isopropanol, 303.21 K | 0.016
in isopropanol, 308.16 K | 0.0209
in isopropanol, 313.14 K | 0.0276
in isopropanol, 318.22 K | 0.0362
in isopropanol, 323.2 K | 0.047
in isopropyl acetate, 283.17 K | 0.0122
in isopropyl acetate, 288.19 K | 0.0135
in isopropyl acetate, 293.2 K | 0.0149
in isopropyl acetate, 298.14 K | 0.0167
in isopropyl acetate, 303.19 K | 0.0186
in isopropyl acetate, 308.16 K | 0.0206
in isopropyl acetate, 313.14 K | 0.0229
in isopropyl acetate, 318.14 K | 0.0258
in isopropyl acetate, 323.2 K | 0.029
in methyl propionate, 283.19 K | 0.0207
in methyl propionate, 288.22 K | 0.0232
in methyl propionate, 293.23 K | 0.0258
in methyl propionate, 298.17 K | 0.0286
in methyl propionate, 303.23 K | 0.0318
in methyl propionate, 308.14 K | 0.0355
in methyl propionate, 313.24 K | 0.0395
in methyl propionate, 318.16 K | 0.0442
in methyl propionate, 323.18 K | 0.0497
in n-butanol, 283.14 K | 0.00719
in n-butanol, 288.07 K | 0.00886
in n-butanol, 293.14 K | 0.0112
in n-butanol, 298.1 K | 0.0143
in n-butanol, 303.05 K | 0.0181
in n-butanol, 308.08 K | 0.0233
in n-butanol, 313.07 K | 0.0298
in n-butanol, 318.05 K | 0.0379
in n-butanol, 323.15 K | 0.0485
in n-butyl acetate, 283.17 K | 0.012
in n-butyl acetate, 288.19 K | 0.0135
in n-butyl acetate, 293.2 K | 0.015
in n-butyl acetate, 298.14 K | 0.0168
in n-butyl acetate, 303.19 K | 0.0191
in n-butyl acetate, 308.16 K | 0.0213
in n-butyl acetate, 313.14 K | 0.0237
in n-butyl acetate, 318.14 K | 0.0269
in n-butyl acetate, 323.2 K | 0.0304
in n-pentanol, 283.23 K | 0.0111
in n-pentanol, 288.23 K | 0.0137
in n-pentanol, 293.29 K | 0.017
in n-pentanol, 298.5 K | 0.0216
in n-pentanol, 303.24 K | 0.0266
in n-pentanol, 308.02 K | 0.0328
in n-pentanol, 313.08 K | 0.0408
in n-pentanol, 318.05 K | 0.0491
in n-pentanol, 323.1 K | 0.0594
in n-pentyl acetate, 283.14 K | 0.00918
in n-pentyl acetate, 288.24 K | 0.0104
in n-pentyl acetate, 293.3 K | 0.0117
in n-pentyl acetate, 298.28 K | 0.0133
in n-pentyl acetate, 303.24 K | 0.0149
in n-pentyl acetate, 308.22 K | 0.0168
in n-pentyl acetate, 313.13 K | 0.0191
in n-pentyl acetate, 318.18 K | 0.0216
in n-pentyl acetate, 323.24 K | 0.0244
in n-propanol, 283.14 K | 0.00832
in n-propanol, 288.07 K | 0.0103
in n-propanol, 293.14 K | 0.013
in n-propanol, 298.08 K | 0.0163
in n-propanol, 303.02 K | 0.0207
in n-propanol, 308.05 K | 0.0264
in n-propanol, 313.03 K | 0.034
in n-propanol, 318.05 K | 0.0427
in n-propanol, 323.05 K | 0.0542
in n-propyl acetate, 283.16 K | 0.0159
in n-propyl acetate, 288.24 K | 0.0176
in n-propyl acetate, 293.16 K | 0.0194
in n-propyl acetate, 298.18 K | 0.0216
in n-propyl acetate, 303.16 K | 0.024
in n-propyl acetate, 308.16 K | 0.0269
in n-propyl acetate, 313.18 K | 0.0302
in n-propyl acetate, 318.16 K | 0.0336
in n-propyl acetate, 323.16 K | 0.0375
